{
  "source": "patent EP1179050B1",
  "about": "“METHOD FOR THE PURIFICATION OF PROTEIN KINASE BY AFFINITY CHROMATOGRAPHY” (University of Tartu, priority 1999, dated 2000)",
  "key": {"PKA": {"target": "PKA (Mus musculus, UniProt P05132)", "settings": "literature values; read-out: Kd (affinity to PKA); cited from earlier work"}, "Protein Kinase A [1]": {"target": "T1, Protein Kinase A (Mus musculus, UniProt P05132)", "assay": "Inhibition constant for PKA (Table 3)", "type": "biochemical"}, "Protein Kinase A [2]": {"target": "T1, Protein Kinase A", "assay": "Inhibition constant for PKA (Table 3)", "type": "biochemical", "remark": "listed apart in the source"}, "Protein Kinase C": {"target": "Protein Kinase C", "assay": "Inhibition constant for PKC (Table 3)", "type": "biochemical"}, "[3]": {"target": "catalytic subunit of murine PKA (Mus musculus, UniProt P05132)", "assay": "Protein kinase A (PKA) activity inhibition, [γ-32P]ATP phosphocellulose paper assay", "type": "biochemical"}, "protein kinase CK2": {"target": "protein kinase CK2 (Rattus norvegicus, UniProt P19139)", "sequence (P19139 whole entry)": "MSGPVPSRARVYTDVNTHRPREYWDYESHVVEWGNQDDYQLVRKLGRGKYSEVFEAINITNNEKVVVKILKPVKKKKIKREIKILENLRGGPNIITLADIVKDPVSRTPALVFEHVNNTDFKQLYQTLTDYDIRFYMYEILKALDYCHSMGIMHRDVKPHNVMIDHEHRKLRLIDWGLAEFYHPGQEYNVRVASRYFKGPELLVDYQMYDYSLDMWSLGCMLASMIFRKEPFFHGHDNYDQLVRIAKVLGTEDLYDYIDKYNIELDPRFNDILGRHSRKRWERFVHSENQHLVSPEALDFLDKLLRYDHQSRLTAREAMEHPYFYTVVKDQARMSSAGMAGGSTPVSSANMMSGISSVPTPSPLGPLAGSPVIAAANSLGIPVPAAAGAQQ", "assay": "Protein kinase CK2 activity inhibition, casein substrate, [γ-32P]ATP phosphocellulose paper assay", "type": "biochemical", "settings": "30°C, pH 7.5, 1 mg/mL casein, 30 µM [γ-32P] ATP; n. i. means no inhibition at 100 µM concentration of ligand"}, "protein kinase CK1": {"target": "protein kinase CK1", "assay": "Protein kinase CK1 activity inhibition, casein substrate, [γ-32P]ATP phosphocellulose paper assay", "type": "biochemical, rat", "settings": "30°C, pH 7.5, 1 mg/mL casein, 30 µM [γ-32P] ATP"}, "[4]": {"target": "Ca^2+-dependent protein kinase (CDPK-1)", "assay": "Ca2+-dependent protein kinase (CDPK-1) activity inhibition, [γ-32P]ATP phosphocellulose paper assay", "type": "biochemical, maize", "settings": "30°C, pH 7.5, 50 µM substrate peptide, 30 µM [γ-32P]ATP"}, "[5]": {"target": "Protein kinase C β isoform (PKC)", "assay": "Protein kinase C β (PKC) activity inhibition, [γ-32P]ATP phosphocellulose paper assay", "type": "biochemical, pig", "settings": "30°C, pH 7.5, 15 µM substrate peptide, 30 µM [γ-32P] ATP"}},
  "note": "Like-named read-outs stand apart in the source and are kept apart here. *1 amine or outer side, *2 acyl side, *3 side chain or, on linkers, in order; H or OH if unused. Where a SMILES comes first, the peptide text is derived from it. [ ]: non-standard residue; d: D form. The star is where a group is joined. Adenosine(5'-uronoyl) = Nc1ncnc2c1ncn2[C@@H]1O[C@H](C(=O)*)[C@@H](O)[C@H]1O; X1 = Nc1ncnc2c1ncn2[C@@H]1O[C@H](C(=O)NC[C@H](N)C(=O)*)[C@@H](O)[C@H]1O; βAsp = O=C(O)[C@H](CC(=O)[*:2])N[*:1]; Dap = NC[C@H](N)C(=O)O",
  "data": [
    {"smiles": "Nc1ncnc2c1ncn2[C@@H]1O[C@H](COP(=O)(O)OP(=O)(O)OP(=O)(O)O)[C@@H](O)[C@H]1O", "note": "[ATP, adenosine triphosphate]", "values": [
      {"measurement": "Kd", "setting": "PKA", "value": 25, "unit": "µM"}
    ]},
    {"smiles": "CC(=O)NCCCCCC(=O)N[C@@H](CCCN=C(N)N)C(=O)N[C@@H](CCCNC(=N)N)C(=O)N[C@@H](CCCNC(=N)N)C(=O)N[C@@H](CCCNC(=N)N)C(=O)N[C@@H](CCCNC(=N)N)C(=O)N[C@@H](CCCN=C(N)N)C(=O)O", "note": "[Ac(amino-hexanoic acid)Arg6, Ac(Ahx)Arg6]", "values": [
      {"measurement": "Ki", "setting": "Protein Kinase A [1]", "value": 27900, "unit": "nM"}
    ]},
    {"smiles": "Nc1ncnc2c1ncn2[C@@H]1O[C@H](CO)[C@@H](O)[C@H]1O", "note": "[Adenosine]", "values": [
      {"measurement": "Ki", "setting": "Protein Kinase A [2]", "value": 43100, "unit": "nM"},
      {"measurement": "Ki", "setting": "Protein Kinase C", "value": 43200, "unit": "nM"}
    ]},
    {"smiles": "NC(N)=NCCC[C@H](NC(=O)[C@H](CCCN=C(N)N)NC(=O)[C@H](CCCN=C(N)N)NC(=O)[C@H](CCCN=C(N)N)NC(=O)[C@H](CCCN=C(N)N)NC(=O)[C@@H](N)CCCN=C(N)N)C(=O)O", "note": "[Arg6]", "values": [
      {"measurement": "Ki", "setting": "Protein Kinase A [1]", "value": 29500, "unit": "nM"}
    ]},
    {"smiles": "C[C@H](NC(=O)CCNC(=O)CCNC(=O)[C@H]1O[C@@H](n2cnc3c(N)ncnc32)[C@H](O)[C@@H]1O)C(=O)N[C@@H](CCCNC(=N)N)C(=O)N[C@@H](CCCNC(=N)N)C(=O)N[C@@H](CCCNC(=N)N)C(=O)N[C@@H](CCCNC(=N)N)C(=O)N[C@@H](CCCNC(=N)N)C(=O)N[C@@H](CCCNC(=N)N)C(=O)O", "note": "[Inhibitor I, AdoC(β-Ala )2AlaArg6]", "values": [
      {"measurement": "IC50", "setting": "[3]", "value": "4.3 ± 0.3", "unit": "µM"},
      {"measurement": "IC50", "setting": "protein kinase CK2", "value": "> 30", "unit": "µM"}
    ]},
    {"smiles": "C[C@H](NC(=O)[C@@H](N)CNC(=O)[C@@H](N)CNC(=O)[C@H]1O[C@@H](n2cnc3c(N)ncnc32)[C@H](O)[C@@H]1O)C(=O)N[C@@H](CCCNC(=N)N)C(=O)N[C@@H](CCCNC(=N)N)C(=O)N[C@@H](CCCNC(=N)N)C(=O)N[C@@H](CCCNC(=N)N)C(=O)N[C@@H](CCCNC(=N)N)C(=O)N[C@@H](CCCNC(=N)N)C(=O)O", "note": "[Inhibitor II, AdoC(Dpr)2AlaArg6] (H-[Dap](X1)ARRRRRR-OH; C-terminus assumed)", "values": [
      {"measurement": "IC50", "setting": "protein kinase CK1", "value": "5.6 ± 0.4", "unit": "µM"},
      {"measurement": "IC50", "setting": "[4]", "value": "31 ± 3", "unit": "µM"}
    ]},
    {"smiles": "C[C@H](NC(=O)C[C@H](NC(=O)C[C@H](NC(=O)[C@H]1O[C@@H](n2cnc3c(N)ncnc32)[C@H](O)[C@@H]1O)C(=O)O)C(=O)O)C(=O)N[C@@H](CCCNC(=N)N)C(=O)N[C@@H](CCCNC(=N)N)C(=O)N[C@@H](CCCNC(=N)N)C(=O)N[C@@H](CCCNC(=N)N)C(=O)N[C@@H](CCCNC(=N)N)C(=O)N[C@@H](CCCNC(=N)N)C(=O)O", "note": "[Inhibitor III, AdoC(β-Asp)2AlaArg6] ({Adenosine(5'-uronoyl)-βAsp-βAsp}-ARRRRRR-OH; C-terminus assumed)", "values": [
      {"measurement": "IC50", "setting": "protein kinase CK1", "value": "> 30", "unit": "µM"},
      {"measurement": "IC50", "setting": "[5]", "value": "27 ± 2", "unit": "µM"},
      {"measurement": "IC50", "setting": "[4]", "value": "> 50", "unit": "µM"}
    ]},
    {"smiles": "N=C(N)NCCC[C@H](NC(=O)[C@H](CCCNC(=N)N)NC(=O)[C@H](CCCNC(=N)N)NC(=O)[C@H](CCCNC(=N)N)NC(=O)[C@H](CCCNC(=N)N)NC(=O)[C@H](CCCNC(=N)N)NC(=O)CNC(=O)[C@H]1O[C@@H](n2cnc3c(N)ncnc32)[C@H](O)[C@@H]1O)C(=O)O", "note": "[Inhibitor IV, AdoCGlyArg6]", "values": [
      {"measurement": "IC50", "setting": "[3]", "value": "4 ± 0.2", "unit": "µM"},
      {"measurement": "IC50", "setting": "protein kinase CK2", "value": "> 30", "unit": "µM"}
    ]},
    {"smiles": "N=C(N)NCCC[C@H](NC(=O)[C@H](CCCNC(=N)N)NC(=O)[C@H](CCCNC(=N)N)NC(=O)[C@H](CCCNC(=N)N)NC(=O)[C@H](CCCNC(=N)N)NC(=O)[C@H](CCCNC(=N)N)NC(=O)CCCCCCCCCCNC(=O)[C@H]1O[C@@H](n2cnc3c(N)ncnc32)[C@H](O)[C@@H]1O)C(=O)O", "note": "[Inhibitor IX, AdoC(Aun)Arg6]", "values": [
      {"measurement": "IC50 (µM) CK2", "setting": "protein kinase CK2", "value": "n. i.^f)"}
    ]},
    {"smiles": "N=C(N)NCCC[C@H](NC(=O)[C@H](CCCNC(=N)N)NC(=O)[C@H](CCCNC(=N)N)NC(=O)[C@H](CCCNC(=N)N)NC(=O)[C@H](CCCNC(=N)N)NC(=O)[C@H](CCCNC(=N)N)NC(=O)CCNC(=O)[C@H]1O[C@@H](n2cnc3c(N)ncnc32)[C@H](O)[C@@H]1O)C(=O)O", "note": "[Inhibitor V, AdoC(β-Ala)Arg6]", "values": [
      {"measurement": "IC50", "setting": "[3]", "value": "1.8 ± 0.1", "unit": "µM"},
      {"measurement": "IC50 (µM) CK2", "setting": "protein kinase CK2", "value": "n. i.^f)"}
    ]},
    {"smiles": "N=C(N)NCCC[C@H](NC(=O)[C@H](CCCNC(=N)N)NC(=O)[C@H](CCCNC(=N)N)NC(=O)[C@H](CCCNC(=N)N)NC(=O)[C@H](CCCNC(=N)N)NC(=O)[C@H](CCCNC(=N)N)NC(=O)CCCNC(=O)[C@H]1O[C@@H](n2cnc3c(N)ncnc32)[C@H](O)[C@@H]1O)C(=O)O", "note": "[Inhibitor VI, AdoC(GABA)Arg6]", "values": [
      {"measurement": "IC50", "setting": "[3]", "value": "1.3 ± 0.2", "unit": "µM"},
      {"measurement": "IC50", "setting": "protein kinase CK2", "value": "> 30", "unit": "µM"}
    ]},
    {"smiles": "N=C(N)NCCC[C@H](NC(=O)[C@H](CCCNC(=N)N)NC(=O)[C@H](CCCNC(=N)N)NC(=O)[C@H](CCCNC(=N)N)NC(=O)[C@H](CCCNC(=N)N)NC(=O)[C@H](CCCNC(=N)N)NC(=O)CCCCCNC(=O)[C@H]1O[C@@H](n2cnc3c(N)ncnc32)[C@H](O)[C@@H]1O)C(=O)O", "note": "[Inhibitor VII, AdoC(Ahx)Arg6]", "values": [
      {"measurement": "IC50", "setting": "[3]", "value": "0.12 ± 0.02", "unit": "µM"},
      {"measurement": "IC50", "setting": "protein kinase CK2", "value": "> 30", "unit": "µM"},
      {"measurement": "Ki", "setting": "Protein Kinase A [1]", "value": 40.1, "unit": "nM"}
    ]},
    {"smiles": "N=C(N)NCCC[C@H](NC(=O)[C@H](CCCNC(=N)N)NC(=O)[C@H](CCCNC(=N)N)NC(=O)[C@H](CCCNC(=N)N)NC(=O)[C@H](CCCNC(=N)N)NC(=O)[C@H](CCCNC(=N)N)NC(=O)CCCCCCCNC(=O)[C@H]1O[C@@H](n2cnc3c(N)ncnc32)[C@H](O)[C@@H]1O)C(=O)O", "note": "[Inhibitor VIII, AdoC(Aoc)Arg6]", "values": [
      {"measurement": "IC50", "setting": "[3]", "value": "0.24 ± 0.02", "unit": "µM"},
      {"measurement": "IC50", "setting": "protein kinase CK2", "value": "> 30", "unit": "µM"}
    ]},
    {"smiles": "Nc1ncnc2nc[nH]c12", "note": "[adenine]", "values": [
      {"measurement": "Kd", "setting": "PKA", "value": 30, "unit": "µM"}
    ]}
  ]
}
